Measurements: patent publication US20080242663A1, “NOVEL PYRIMIDINE DERIVATIVES 698” (ASTRAZENECA AB, priority 2007, published 2008)

Target: T1, recombinant EphB4 (Homo sapiens, UniProt P54760)
T1 construct: amino acids 563-987; Swiss-Prot Acc; No. P54760; purchased ProQinase GmbH 0178-0000-3
T1 sequence (P54760 563-987): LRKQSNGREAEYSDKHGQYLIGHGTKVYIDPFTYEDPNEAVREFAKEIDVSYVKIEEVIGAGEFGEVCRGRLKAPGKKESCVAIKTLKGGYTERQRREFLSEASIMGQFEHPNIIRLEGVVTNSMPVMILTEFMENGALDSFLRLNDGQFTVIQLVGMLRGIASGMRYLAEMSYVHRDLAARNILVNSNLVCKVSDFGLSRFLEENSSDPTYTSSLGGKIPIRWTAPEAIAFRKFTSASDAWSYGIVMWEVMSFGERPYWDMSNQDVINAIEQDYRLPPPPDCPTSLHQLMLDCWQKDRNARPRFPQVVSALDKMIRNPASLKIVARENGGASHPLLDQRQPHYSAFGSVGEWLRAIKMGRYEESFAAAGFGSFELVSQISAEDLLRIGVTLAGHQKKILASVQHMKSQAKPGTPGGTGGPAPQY
Assay: In vitro EphB4 enzyme assay (Alphascreen)
Format: biochemical
Protocol: This assay detects inhibitors of EphB4-mediated phosphorylation of a polypeptide substrate using Alphascreen™ luminescence detection technology. Briefly, recombinant EphB4 was incubated with a biotinylated-polypeptide substrate (biotin-poly-GAT) in presence of magnesium-ATP. The reaction was stopped by addition of EDTA, together with streptavidin-coated donor beads which bind the biotin-substrate containing any phosphorylated tyrosine residues. Anti-phosphotyrosine antibodies present on acceptor beads bind to phosphorylated substrate, thus bringing the donor & acceptor beads into close proximity. Subsequent excitation of the donor beads at 680 nm generated singlet oxygen species that interact with a chemiluminescer on the acceptor beads, leading to light emission at 520-620 nm. The signal intensity is directly proportional to the level of substrate phosphorylation and thus inhibition is measured by a decrease in signal.
Assay plates were then incubated at room temperature for 1 hr. […] The plates were sealed under natural lighting conditions, wrapped in aluminium foil and incubated in the dark for a further 20 hrs.
The resulting assay signal was determined on the Perkin Elmer EnVision plate reader. The minimum value was subtracted from all values, and the signal plotted against compound concentration to generate IC50 data.

IC50 [nM]	SMILES
414	CCN(c1ccnc(Nc2cc(N3CCOCC3)cc(S(C)(=O)=O)c2)n1)c1cc(CO)ccc1C [Example 8.1, [3-[ethyl-[2-[(3-methylsulfonyl-5-morpholin-4-yl-phenyl)amino]pyrimidin-4-yl]amino]-4-methyl-phenyl]methanol]
917	Cc1ccc(CO)cc1N(CC(C)C)c1ccnc(Nc2cc(N3CCOCC3)cc(S(C)(=O)=O)c2)n1 [Example 8.3, [4-methyl-3-[2-methylpropyl-[2-[(3-methylsulfonyl-5-morpholin-4-yl-phenyl)amino]pyrimidin-4-yl]amino]phenyl]methanol]
1070	Cc1ccc(CO)cc1N(CC1CC1)c1ccnc(Nc2cc(N3CCOCC3)cc(S(C)(=O)=O)c2)n1 [Example 8.4, [3-[cyclopropyl-methyl-[2-[(3-methylsulfonyl-5-morpholin-4-yl-phenyl)amino]pyrimidin-4-yl]amino]-4-methyl-phenyl]methanol]
402	Cc1ccc(N(C)c2ccnc(Nc3cc(N4CCOCC4)cc(N4CCOCC4)c3)n2)cc1 [Example 10.1, N-(3,5-dimorpholin-4-ylphenyl)-N′-methyl-N′-(4-methylphenyl)pyrimidine-2,4-diamine]
340	CN(c1cccc(F)c1)c1ccnc(Nc2cc(N3CCOCC3)cc(N3CCOCC3)c2)n1 [Example 10.5, N-(3,5-dimorpholin-4-ylphenyl)-N′-(3-fluorophenyl)-N′-methyl-pyrimidine-2,4-diamine]
638	CSc1cccc(N(C)c2ccnc(Nc3cc(N4CCOCC4)cc(N4CCOCC4)c3)n2)c1 [Example 10.7, N-(3,5-dimorpholin-4-ylphenyl)-N′-methyl-N′-(3-methylsulfanylphenyl)pyrimidine-2,4-diamine]
1100	Cc1cc(C)cc(N(C)c2ccnc(Nc3cc(N4CCOCC4)cc(N4CCOCC4)c3)n2)c1 [Example 10.8, N′-(3,5-dimethylphenyl)-N-(3,5-dimorpholin-4-ylphenyl)-N′-methyl-pyrimidine-2,4-diamine]
527	CN(c1cccc(C#N)c1)c1ccnc(Nc2cc(N3CCOCC3)cc(N3CCOCC3)c2)n1 [Example 10.10, 3-[[2-[(3,5-dimorpholin-4-ylphenyl)amino]pyrimidin-4-yl]-methyl-amino]benzonitrile]
660	CN(c1ccc(Cl)c(Cl)c1)c1ccnc(Nc2cc(N3CCOCC3)cc(N3CCOCC3)c2)n1 [Example 10.11, N′-(3,4-dichlorophenyl)-N-(3,5-dimorpholin-4-ylphenyl)-N′-methyl-pyrimidine-2,4-diamine]
107	COc1ccccc1N(C)c1ccnc(Nc2cc(N3CCOCC3)cc(N3CCOCC3)c2)n1 [Example 10.12, N-(3,5-dimorpholin-4-ylphenyl)-N′-(2-methoxyphenyl)-N′-methyl-pyrimidine-2,4-diamine]
811	Cc1cc(C)c(N(C)c2ccnc(Nc3cc(N4CCOCC4)cc(N4CCOCC4)c3)n2)c(C)c1 [Example 10.13, N-(3,5-dimorpholin-4-ylphenyl)-N′-methyl-N′-(2,4,6-trimethylphenyl)pyrimidine-2,4-diamine]
381	CN(c1ccnc(Nc2cc(N3CCOCC3)cc(N3CCOCC3)c2)n1)c1ccc(F)cc1F [Example 10.14, N′-(2,4-difluorophenyl)-N-(3,5-dimorpholin-4-ylphenyl)-N′-methyl-pyrimidine-2,4-diamine]
237	CN(c1ccnc(Nc2cc(N3CCOCC3)cc(N3CCOCC3)c2)n1)c1ccccc1F [Example 10.16, N-(3,5-dimorpholin-4-ylphenyl)-N′-(2-fluorophenyl)-N′-methyl-pyrimidine-2,4-diamine]
9780	CN(c1ccc(C#N)cc1)c1ccnc(Nc2cc(N3CCOCC3)cc(N3CCOCC3)c2)n1 [Example 10.17, 4-[[2-[(3,5-dimorpholin-4-ylphenyl)amino]pyrim-idin-4-yl]-methyl-amino]benzonitrile]
150	CN(c1ccnc(Nc2cc(N3CCOCC3)cc(N3CCOCC3)c2)n1)c1cc(CO)ccc1Cl [Example 10.19, [4-chloro-3-[[2-[(3,5-dimorpholin-4-ylphenyl)amino]pyrimidin-4-yl]-methyl-amino]phenyl]methanol]
338	CN(c1cc(Cl)cc(CO)c1)c1ccnc(Nc2cc(N3CCOCC3)cc(N3CCOCC3)c2)n1 [Example 10.20, [3-chloro-5-[[2-[(3,5-dimorpholin-4-ylphenyl)amino]pyrimidin-4-yl]-methyl-amino]phenyl]methanol]

IC50 [nM]	SMILES
29.4	COc1ccc(C)c(N(C)c2ccnc(Nc3cc(N4CCOCC4)cc(S(C)(=O)=O)c3)n2)c1 [Example 12.2, N′-(5-methoxy-2-methyl-phenyl)-N′-methyl-N-(3-methylsulfonyl-5-morpholin-4-yl-phenyl)pyrimidine-2,4-diamine]
455	COc1ccc(C)c(N(C)c2ccnc(Nc3cc(C(=O)N(C)C)cc(N4CCOCC4)c3)n2)c1 [Example 12.3, 3-[[4-[(5-methoxy-2-methyl-phenyl)-methyl-amino]pyrimidin-2-yl]amino]-N,N-dimethyl-5-morpholin-4-yl-benzamide]
171	COc1ccc(C)c(N(C)c2ccnc(Nc3cc(N4CCOCC4)cc(N4CCN(C)CC4)c3)n2)c1 [Example 12.4, N′-(5-methoxy-2-methyl-phenyl)-N′-methyl-N-[3-(4-methylpiperazin-1-yl)-5-morpholin-4-yl-phenyl]pyrimidine-2,4-diamine]
2.95	COc1ccc(C)c(N(C)c2ccnc(Nc3cc(N4CCOCC4)cc(N4CCC(O)CC4)c3)n2)c1 [Example 12.5, 1-(3-(4-((5-methoxy-2-methylphenyl)(methyl)amino)pyrim-idin-2-ylamino)-5-morpholinophenyl)piperidin-4-ol]
3.4	COc1ccc(C)c(N(C)c2ccnc(Nc3cc(N4CCNCC4)cc(N4CCOCC4)c3)n2)c1 [Example 12.6, N4-(5-methoxy-2-methylphenyl)-N4-methyl-N2-(3-morpholino-5-(piperazin-1-yl)phenyl)pyrimidine-2,4-diamine]
305	COc1ccc(C)c(N(C)c2ccnc(Nc3cc(N4CCOCC4)cc(N4CCOCC4=O)c3)n2)c1 [Example 12.7, 4-[3-[[4-[(5-methoxy-2-methyl-phenyl)-methyl-amino]pyrimidin-2-yl]amino]-5-morpholin-4-yl-phenyl]morpholin-3-one]
5.82	COc1ccc(C)c(N(C)c2ccnc(Nc3cc(N4CCOCC4)cc(N4CCOC[C@@H]4C)c3)n2)c1 [Example 12.8, (S)-N4-(5-methoxy-2-methylphenyl)-N4-methyl-N2-(3-(3-methylmorpholino)-5-morpholinophenyl)pyrimidine2,4-diamine]
470	COc1ccc(NC(C)=O)c(N(C)c2ccnc(Nc3cc(N4CCOCC4)cc(N4CCOCC4)c3)n2)c1 [Example 13.1, N-[2-[[2-[(3,5-dimorpholin-4-ylphenyl)amino]pyrimidin-4-yl]-methyl-amino]-4-methoxy-phenyl]acetamide]
426	COc1ccc(NC(C)=O)c(N(C)c2ccnc(Nc3cc(N4CCOCC4)cc(S(C)(=O)=O)c3)n2)c1 [Example 13.2, N-[4-methoxy-2-[methyl-[2-[(3-methylsulfonyl-5-morpholin-4-yl-phenyl)amino]pyrimidin-4-yl]amino]phenyl]acetamide]
370	CN(c1ccnc(Nc2cc(N3CCOCC3)cc(N3CCOCC3)c2)n1)c1cccc(F)c1F [Example 14, N′-(2,3-difluorophenyl)-N-(3,5-dimorpholin-4-ylphenyl)-N′-methyl-pyrimidine-2,4-diamine]
34100	CN(c1ccnc(Nc2cc(N3CCOCC3)cc(N3CCOCC3)c2)n1)c1ccc(Cl)cc1Cl [Example 15.1, N′-(2,4-dichlorophenyl)-N-(3,5-dimorpholin-4-ylphenyl)-N′-methyl-pyrimidine-2,4-diamine]
206	COc1cc(N(C)c2ccnc(Nc3cc(N4CCOCC4)cc(N4CCOCC4)c3)n2)ccc1C#N [Example 15.2, 4-[[2-[(3,5-dimorpholin-4-ylphenyl)amino]pyrimidin-4-yl]-methyl-amino]-2-methoxy-benzonitrile]
1000	COc1ccc(N(C)c2ccnc(Nc3cc(N4CCOCC4)cc(N4CCOCC4)c3)n2)cc1OC [Example 15.3, N′-(3,4-dimethoxyphenyl)-N-(3,5-dimorpholin-4-ylphenyl)-N′-methyl-pyrimidine-2,4-diamine]
680	COc1ccc(OC)c(N(C)c2ccnc(Nc3cc(N4CCOCC4)cc(N4CCOCC4)c3)n2)c1 [Example 15.4, N′-(2,5-dimethoxyphenyl)-N-(3,5-dimorpholin-4-ylphenyl)-N′-methyl-pyrimidine-2,4-diamine]
1120	COc1cc(OC)cc(N(C)c2ccnc(Nc3cc(N4CCOCC4)cc(N4CCOCC4)c3)n2)c1 [Example 15.5, N′-(3,5-dimethoxyphenyl)-N-(3,5-dimorpholin-4-ylphenyl)-N′-methyl-pyrimidine-2,4-diamine]
